≈ marks a conversion by molar mass, not a printed value. Entries after “also recorded” stand apart in the source; their conditions may differ. Where two headings read alike, the source gives them in different places. Marks after values point to notes of the source that are not given here.
What was measured:
S. agalactiae CIT 239 = experiment: Broth MIC assay; format: cell-based, Streptococcus agalactiae; conditions: Streptococcus agalactiae
Description: (§1) MIC determinations were carried out in triplicate in 96-well microtiter plates (Sarstedt, Newton, NC, USA) as previously described. Initially, 200µL of 1% bovine serum albumin (BSA) (Sigma-Aldrich, St. Louis, MO, USA) (in PBS) was added to the plates which were incubated at 37 °C for 30 min. The solution was removed, plates were washed with 200 µL PBS and then air dried in a laminar flow hood. Target strains (Streptococcus agalactiae, Staphylococcus capitis and Lactococcus lactis) were grown overnight in suitable media under appropriate conditions and were subsequently sub-cultured into fresh broth and allowed to grow to an optical density of ~0.5 (OD600). The culture was then diluted to a final concentration of 10^5 CFU mL^−1 in a volume of 1 mL. The peptides were resuspended in appropriate media to a stock concentration of […] (S. agalactiae and S. capitis strains) and […] (L. lactis strains). Nisin A and nisin derivatives were adjusted to a starting concentration of 15 µM (S. agalactiae and S. capitis strains) or 5 µM (L. lactis strains). […] An aliquot of 100 µL of peptides and or antibiotics were added to the first well, mixed and then 2-fold serial dilutions of each peptide were made in TSBYE broth. Then, 100 µL of target strain was added to each test well, and the plates were incubated at 30 °C or 37 °C for 16 h. The MIC was read as the lowest peptide concentration causing inhibition of visible growth. Experiments were performed in triplicate.

S. agalactiae CIT 364 = experiment: Broth MIC assay; format: cell-based, Streptococcus agalactiae; conditions: Streptococcus agalactiae, CIT364; broth microdilution in TSBYE, 10^5 CFU/mL, 16 h, 37 °C; average of three independent biological repeats; read-out: MIC
Description: as §1

S. agalactiae CIT 67 = experiment: Broth MIC assay; format: cell-based, Streptococcus agalactiae; conditions: Streptococcus agalactiae, CIT67; broth microdilution in TSBYE, 10^5 CFU/mL, 16 h, 37 °C; average of three independent biological repeats; read-out: MIC
Description: as §1

S. agalactiae CIT 85 = experiment: Broth MIC assay; format: cell-based, Streptococcus agalactiae; conditions: for MIC: Streptococcus agalactiae
Description: as §1

S. agalactiae CIT 87 = experiment: Broth MIC assay; format: cell-based, Streptococcus agalactiae; conditions: Streptococcus agalactiae, CIT87; broth microdilution in TSBYE, 10^5 CFU/mL, 16 h, 37 °C; average of three independent biological repeats; read-out: MIC
Description: as §1

S. agalactiae strains = experiment: Broth MIC assay, summary over isolates; format: cell-based, Streptococcus agalactiae; conditions: for MIC: Streptococcus agalactiae, read-out: MIC values over S. agalactiae strains, span over the isolates the sentence refers to (three, four or all five)
Description: as §1

S. capitis AR18 = experiment: Broth MIC assay; format: cell-based; conditions: Staphylococcus capitis, AR18; broth microdilution in TSBYE, 10^5 CFU/mL, 16 h, 37 °C; average of three independent biological repeats; read-out: MIC
Description: as §1

S. capitis AV80 [1] = experiment: Broth MIC assay; format: cell-based; conditions: Staphylococcus capitis, AV80; broth microdilution in TSBYE, 10^5 CFU/mL, 16 h, 37 °C; average of three independent biological repeats; read-out: MIC
Description: as §1

S. capitis AY41 = experiment: microbe, parasite or virus in culture; format: cell-based, Staphylococcus capitis; conditions: for MIC: 16 h
Description: as §1

S. capitis BA06 = experiment: Broth MIC assay; format: cell-based, Staphylococcus capitis; conditions: for MIC: Staphylococcus capitis, BA06, broth microdilution in TSBYE, 10^5 CFU/mL, 16 h, 37 °C, average of three independent biological repeats, read-out: MIC
Description: as §1

S. capitis BD01 = experiment: Broth MIC assay; format: cell-based, Staphylococcus capitis; conditions: Staphylococcus capitis, BD01; broth microdilution in TSBYE, 10^5 CFU/mL, 16 h, 37 °C; average of three independent biological repeats; read-out: MIC
Description: as §1

S. capitis strains = experiment: Broth MIC assay, summary over isolates; format: cell-based, Staphylococcus capitis
Description: as §1, with “Then, 100 µL of target strain was added to each test well, and the plates were incubated at 30 °C or 37 °C for 16 h.” left out, “Experiments were performed in triplicate.” left out

S. capitis AV80 [2] = experiment: Time-kill curve analysis; format: cell-based, Staphylococcus capitis; conditions: nisin peptides […] (1/4 MIC), ampicillin 3.75 µg/mL (1/4 MIC); re-growth after 6 h
Description: The means and standard deviations of three independent determinations are presented.
During incubation, 100µL of each sample was taken at 0, 2, 4, 6 and 24 h. Cell growth was assessed by performing viable cell counts by diluting cultures in PBS solution and enumeration on TSBYE plates. Synergism was defined as ≥2 log10 CFU/mL reduction with the combination of antimicrobials relative to either antimicrobial alone after 24 h. A 1–2 log10 reduction in CFU/mL was defined as an additive effect and an increase or decrease of <1 log10 was defined as an indifferent effect. An antagonistic effect was defined as >2 log10 increase in CFU/mL after 24 h [28]. Experiments were performed in triplicate.

[3] = system: clinical isolates of S. agalactiae (n = 5) and S. capitis (n = 5); experiment: Deferred antagonism agar-based assay; format: cell-based, Streptococcus agalactiae, Staphylococcus capitis; conditions: pathogenic indicators, n = 10; listed as nisin PV
Description: All plates were supplemented with sub-inhibitory concentration (10 µg/L) of nisin in the form of nisaplin to ensure induction of the nisin mutants.
Site-saturation mutagenesis of three codons, including threonine, lysine and methionine, at positions 2, 12 and 17 of the nisA gene, was carried out as described previously. Briefly, pDF23 (pCI372-PV) was used as a template and oligonucleotides, NisT2deg-FOR and REV, NisK12deg-FOR and REV and Nis17deg-FOR and REV, containing an NNK codon potentially encoding for all twenty standard amino acids. Deferred antagonism agar-based assays were employed to assess the bioactivity of the nisin derivatives (PV, K12X-PV, T2X-PV, and M17X-PV) produced by each strain. Briefly, fresh overnight cultures of each L. lactis test culture was replicated on GM17/TSBYE agar plates containing 0.1% nisaplin using a 96-pin replicator (Boekel, Feasterville, PA, USA) and incubated overnight at 30 °C before being exposed to ultraviolet radiation for 45 min. The plates were then overlayed with GM17/TYSBYE agar (0.75% agar) and seeded (0.5% inoculum) with either Lactococcus lactis MG1614 (NSR-), the nisin resistance protein-expressing indicator strain L. lactis MG1614 pNP40 (NSR+) or TSBYE agar seeded with Staphylococcus capitis (NSR+) or Streptococcus agalactiae (NSR+) isolates. […]

[4] = system: nisin resistance protein (NSR); conditions: cited from earlier work
[5] = CIT239, broth microdilution in TSBYE, 10^5 CFU/mL, 16 h, 37 °C, average of three independent biological repeats, read-out: MIC
[6] = CIT85, broth microdilution in TSBYE, 10^5 CFU/mL, 16 h, 37 °C, average of three independent biological repeats, read-out: MIC
[7] = Staphylococcus capitis, AY41, broth microdilution in TSBYE, 10^5 CFU/mL, 37 °C, average of three independent biological repeats, read-out: MIC

SMILES	MIC (S. agalactiae CIT 239; [5])	MIC (S. agalactiae CIT 364)	MIC (S. agalactiae CIT 67)	MIC (S. agalactiae CIT 85; [6])	MIC (S. agalactiae CIT 87)	MIC (S. agalactiae strains)	MIC (S. capitis AR18)	MIC (S. capitis AV80 [1])	MIC (S. capitis AY41; [7])	MIC (S. capitis BA06)	MIC (S. capitis BD01)	also measured
CC1(C)S[C@@H]2[C@H](NC(=O)[C@H](N)c3ccccc3)C(=O)N2[C@H]1C(=O)O [Ampicillin, ampicillin]	0.097 µg/mL (≈ 0.278 µM)	0.78 µg/mL (≈ 2.23 µM)	1.56 µg/mL (≈ 4.46 µM)	0.097 µg/mL (≈ 0.278 µM)	0.78 µg/mL (≈ 2.23 µM)	0.78 to 1.56 µg/mL (≈ 2.23 to 4.46 µM)	–	–	–	–	–	–
CC[C@H]1OC(=O)[C@H](C)[C@@H](O[C@H]2C[C@@](C)(OC)[C@@H](O)[C@H](C)O2)[C@H](C)[C@@H](O[C@@H]2O[C@H](C)C[C@H](N(C)C)[C@H]2O)[C@](C)(O)C[C@@H](C)C(=O)[C@H](C)[C@@H](O)[C@]1(C)O [Erythromycin, erythromycin]	–	0.78 µg/mL (≈ 1.06 µM)	1 µg/mL (≈ 1.36 µM)	–	0.39 µg/mL (≈ 0.531 µM)	0.78 to 3.13 µg/mL (≈ 1.06 to 4.26 µM)	0.097 µg/mL (≈ 0.132 µM)	12.5 µg/mL (≈ 17 µM)	0.195 µg/mL (≈ 0.266 µM)	12.5 µg/mL (≈ 17 µM)	6.25 µg/mL (≈ 8.52 µM)	MIC (S. agalactiae CIT 239; CIT239, 16 h): 1.56 µg/mL (≈ 2.13 µM); MIC (S. agalactiae CIT 85; CIT85, 16 h): 3.13 µg/mL (≈ 4.26 µM)
CNC(C)C1CCC(N)C(OC2C(N)CC(N)C(OC3OCC(C)(O)C(NC)C3O)C2O)O1 (stereo not shown) [Gentamicin, gentamicin]	25 µg/mL (≈ 52.3 µM)	25 µg/mL (≈ 52.3 µM)	25 µg/mL (≈ 52.3 µM)	6.25 µg/mL (≈ 13.1 µM)	25 µg/mL (≈ 52.3 µM)	–	> 50 µg/mL	> 50 µg/mL	0.39 µg/mL (≈ 0.817 µM)	> 50 µg/mL	> 50 µg/mL	MIC (S. capitis strains; Staphylococcus capitis, span over the isolates the sentence refers to (four or all five)): > 50 µg/mL
C=C(NC(=O)[C@@H](NC(=O)[C@H](Cc1c[nH]cn1)NC(=O)[C@@H](NC(=O)[C@@H]1CCCN1C(=O)[C@@H]1CS[C@@H](C)[C@H]2NC(=O)[C@H](C)NC(=O)[C@H](NC(=O)[C@H](CCCCN)NC(=O)[C@H](CCSC)NC(=O)[C@H](CC(N)=O)NC(=O)[C@@H]3CS[C@@H](C)[C@@H](NC(=O)[C@H](CCCCN)NC(=O)[C@@H]4CS[C@@H](C)[C@@H](NC(=O)[C@@H]5CSC[C@@H](NC(=O)/C(=C/C)NC(=O)[C@@H](N)[C@@H](C)CC)C(=O)N[C@@H]([C@@H](C)CC)C(=O)NC(=C)C(=O)N[C@@H](CC(C)C)C(=O)N5)C(=O)N5CCC[C@H]5C(=O)NCC(=O)N4)C(=O)NCC(=O)N[C@@H](C)C(=O)N[C@@H](CC(C)C)C(=O)N[C@@H](CCSC)C(=O)NCC(=O)N3)[C@H](C)SC[C@H](NC2=O)C(=O)N[C@@H](Cc2c[nH]cn2)C(=O)N1)C(C)C)C(C)C)C(=O)N[C@@H](CCCCN)C(=O)O [PV]	–	–	–	–	–	–	–	–	–	–	–	fold decrease in potency compared to nisin A (S. agalactiae CIT 85; from MIC): 2 fold; MIC (S. capitis AY41): 6 * µg/mL; fold increase in potency compared to nisin A (S. capitis AY41; from MIC): 4 fold; fold increase in potency compared to nisin A (S. capitis BA06; from MIC): 2 fold; fold increase in potency compared to nisin A (S. agalactiae strains; four of the five S. agalactiae strains, from MIC): 2 fold; fold more active compared to nisin A (S. capitis strains; some strains of S. capitis, purified peptides): 2–4 fold; time-kill outcome of single treatments (S. capitis AV80 [2]): inhibited bacterial growth over 4 h; bioactivity (zone of inhibition) of the producing strain [3]: improved antimicrobial activity against all strains tested; also recorded: greatest bioactivity against the majority of pathogenic indicators; susceptibility to proteolytic cleavage by NSR [4]: resist proteolytic cleavage by NSR

Source: paper PMC9686653, “Bioengineered Nisin A Derivatives Display Enhanced Activity against Clinical Neonatal Pathogens” (Antibiotics, 2022)
